The text below walks through data of patent US10131606B2, “Tetrarylmethane ethers” (Rohm and Haas Company, priority 2014, dated 2018).

Structures are written as SMILES.

What is called melting point is the temperature, or range, at which the solid turns liquid.

Molecule `CCCCCCCOc1ccc(C(c2ccccc2)(c2ccccc2)c2ccc(OCCCCCCC)cc2)cc1` [BHeptTPM, Bis(4-(heptyloxy)phenyl)diphenylmethane] had a melting point of 103 to 105 °C. The same measure for `CCCCCCOc1ccc(C(c2ccccc2)(c2ccccc2)c2ccc(OCCCCCC)cc2)cc1` [BHexTPM]: 120 to 122 °C; for `CCCCCCCCOc1ccc(C(c2ccccc2)(c2ccccc2)c2ccc(OCCCCCCCC)cc2)cc1` [BOctTPM, Bis(4-(octyloxy)phenyl)diphenylmethane]: 84.5 to 86.5 °C. The figure for `CCCCCOc1ccc(C(c2ccccc2)(c2ccccc2)c2ccc(OCCCCC)cc2)cc1` [BPentTPM, Bis(4-(pentyloxy)phenyl)diphenylmethane] is 110 to 113 °C.
